Consider seven molecules from US11566007B2, “Ras inhibitors” (Revolution Medicines, Inc., priority 2019, dated 2023).

In one assay the test system is NCI-H358 (K-Ras G12C). The experiment in a line: CellTiter-Glo cell viability assay, NCI-H358. The assay is classed as cell-based, human. The following applies: Homo sapiens, NCI-H358, 120 h, NCI-H358, 5-day treatment; class symbols; read-out: Additional H358 Cell Viability assay data (K-Ras G12C, IC50). Summed up:
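Viability measured by CellTiter-Glo luminescence on day 5 following direct addition of compound to plated cells. Values expressed as percent of mean DMSO signal; curves fitted with a four-parameter logistic model.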
On the technique in general: ATP-based viability assays read luminescence as a measure of living cells.

In a further assay the target is K-Ras G12C (Homo sapiens (Human), UniProt P01116+P62937, G12C). Nature of the assay: Ras-Raf (BRAF RBD) disruption / FRET / MOA assay, KRAS G12C. The assay is classed as biochemical. The following applies: KRAS G12C; Ras-Raf disruption/FRET/MOA assay; read-out: IC50* KRAS G12C FRET data. The method in brief: (§1)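 Compound-driven ternary complex of nucleotide-loaded Ras with cyclophilin A, disrupting BRAF RBD binding. 10-point 3-fold dilution from 30 μM final, 3 h at 25° C, then anti-His Eu-W1024 (10 nM) and anti-GST allophycocyanin (50 nM) for 1.5 h. IC50 from TR-FRET ratio decrease versus DMSO.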
Chain of K-Ras G12C (P01116-2 other isoform, or with tags, fused parts or gaps G12C): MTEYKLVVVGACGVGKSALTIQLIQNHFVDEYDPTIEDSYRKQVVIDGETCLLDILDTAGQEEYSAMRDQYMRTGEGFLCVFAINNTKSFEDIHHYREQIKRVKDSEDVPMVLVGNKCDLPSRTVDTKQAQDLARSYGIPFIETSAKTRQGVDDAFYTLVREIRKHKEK
Chain of K-Ras G12C (P62937 whole entry): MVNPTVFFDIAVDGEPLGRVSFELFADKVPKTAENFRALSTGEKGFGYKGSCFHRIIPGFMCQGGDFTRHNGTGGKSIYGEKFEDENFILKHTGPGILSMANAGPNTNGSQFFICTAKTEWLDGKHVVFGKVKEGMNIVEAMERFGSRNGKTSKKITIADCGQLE

A further assay has as its target K-Ras G13C (Homo sapiens (Human), UniProt P01116+P62937, G13C). Nature of the assay: Ras-Raf (BRAF RBD) disruption / FRET / MOA assay, KRAS G13C. In kind it is biochemical. The following applies: KRAS G13C; Ras-Raf disruption/FRET/MOA assay; read-out: IC50* KRAS G13C FRET data. Summed up:
as §1

Another assay concerns the target KRAS G12S (Homo sapiens (Human), UniProt P01116+P62937, G12S). The experiment in a line: Ras-Raf (BRAF RBD) disruption / FRET / MOA assay, KRAS G12S. The following applies: Ras-Raf disruption/FRET/MOA assay; class symbols; read-out: KRAS G12S FRET data IC50. In kind it is biochemical. The method in brief:
as §1

For a further assay, the target named is KRAS G12D (Homo sapiens (Human), UniProt P01116+P62937, G12D). The experiment in a line: Ras-Raf (BRAF RBD) disruption / FRET / MOA assay, KRAS G12D. The following applies: Ras-Raf disruption/FRET/MOA assay; class symbols; read-out: KRAS G12D FRET data IC50. The assay is classed as biochemical. The method in brief: as §1
Chain of KRAS G12D (P01116-2 other isoform, or with tags, fused parts or gaps G12D): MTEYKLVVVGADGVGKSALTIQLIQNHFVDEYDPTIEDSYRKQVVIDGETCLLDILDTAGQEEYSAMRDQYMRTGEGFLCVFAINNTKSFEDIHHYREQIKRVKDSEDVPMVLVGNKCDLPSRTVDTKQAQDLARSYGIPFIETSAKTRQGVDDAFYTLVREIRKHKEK
Chain of KRAS G12D (P62937 whole entry): as the sequence (P62937 whole entry) above
For the next assay, the target named is KRAS G12V (Homo sapiens (Human), UniProt P01116+P62937, G12V). The experiment in a line: Ras-Raf (BRAF RBD) disruption / FRET / MOA assay, KRAS G12V. In kind it is biochemical. The following applies: read-out: IC50* KRAS G12V FRET data. The method in brief: as §1
Chain of KRAS G12V (P01116-2 other isoform, or with tags, fused parts or gaps G12V): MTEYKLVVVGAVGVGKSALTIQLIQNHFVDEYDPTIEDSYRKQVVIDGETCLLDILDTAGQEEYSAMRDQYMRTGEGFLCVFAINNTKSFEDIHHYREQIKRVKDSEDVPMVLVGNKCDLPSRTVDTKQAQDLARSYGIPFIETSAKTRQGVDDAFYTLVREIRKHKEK
Chain of KRAS G12V (P62937 whole entry): as the sequence (P62937 whole entry) above
In a further assay the target is KRAS WT (Homo sapiens (Human), UniProt P01116+P62937). Nature of the assay: Ras-Raf (BRAF RBD) disruption / FRET / MOA assay, KRAS WT. The assay is classed as biochemical. The following applies: read-out: IC50* KRAS WT FRET data. Summed up: as §1
Chain of KRAS WT (P01116-2 other isoform, or with tags, fused parts or gaps): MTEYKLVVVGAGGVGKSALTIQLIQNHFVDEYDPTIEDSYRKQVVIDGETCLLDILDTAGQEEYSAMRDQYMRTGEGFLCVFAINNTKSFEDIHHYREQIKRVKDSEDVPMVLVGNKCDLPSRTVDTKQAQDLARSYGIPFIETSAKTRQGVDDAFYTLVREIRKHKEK
Chain of KRAS WT (P62937 whole entry): as the sequence (P62937 whole entry) above
The next assay concerns the target KRAS G13D (Homo sapiens (Human), UniProt P01116+P62937, G13D). The experiment in a line: Ras-Raf (BRAF RBD) disruption / FRET / MOA assay, KRAS G13D. In kind it is biochemical. The following applies: read-out: IC50* KRAS G13D FRET data. The method in brief: as §1
The next assay deals with NRAS G12C (Homo sapiens (Human), UniProt P01111+P62937, G12C). Nature of the assay: Ras-Raf (BRAF RBD) disruption / FRET / MOA assay, NRAS G12C. The following applies: read-out: IC50* NRAS G12C FRET data. In kind it is biochemical. Summed up:
as §1

Chain of KRAS G12S (P01116-2 other isoform, or with tags, fused parts or gaps G12S): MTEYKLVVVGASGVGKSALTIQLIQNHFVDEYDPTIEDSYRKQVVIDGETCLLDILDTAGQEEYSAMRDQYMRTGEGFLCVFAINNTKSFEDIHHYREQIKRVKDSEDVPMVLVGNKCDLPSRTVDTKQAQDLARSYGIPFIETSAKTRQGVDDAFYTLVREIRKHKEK
Chain of KRAS G12S (P62937 whole entry): as the sequence (P62937 whole entry) above
Chain of NRAS G12C (P01111 whole entry G12C): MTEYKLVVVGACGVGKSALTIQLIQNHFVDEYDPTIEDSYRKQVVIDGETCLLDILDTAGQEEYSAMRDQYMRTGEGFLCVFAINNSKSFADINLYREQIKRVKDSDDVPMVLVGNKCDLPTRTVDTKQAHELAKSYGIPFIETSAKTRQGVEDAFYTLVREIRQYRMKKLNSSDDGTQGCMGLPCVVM
Chain of NRAS G12C (P62937 whole entry): as the sequence (P62937 whole entry) above
Chain of K-Ras G13C (P01116-2 other isoform, or with tags, fused parts or gaps G13C): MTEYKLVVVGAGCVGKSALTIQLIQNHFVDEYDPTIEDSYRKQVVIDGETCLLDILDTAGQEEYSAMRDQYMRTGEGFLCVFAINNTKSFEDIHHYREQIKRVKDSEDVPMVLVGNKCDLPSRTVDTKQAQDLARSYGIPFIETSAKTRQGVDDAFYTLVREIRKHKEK
Chain of K-Ras G13C (P62937 whole entry): as the sequence (P62937 whole entry) above
Chain of KRAS G13D (P01116-2 other isoform, or with tags, fused parts or gaps G13D): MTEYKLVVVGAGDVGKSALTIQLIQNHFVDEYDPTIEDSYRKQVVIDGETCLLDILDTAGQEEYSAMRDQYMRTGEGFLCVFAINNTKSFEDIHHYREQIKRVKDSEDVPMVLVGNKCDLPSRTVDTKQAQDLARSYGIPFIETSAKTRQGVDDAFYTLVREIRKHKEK
Chain of KRAS G13D (P62937 whole entry): as the sequence (P62937 whole entry) above

On to `C=CC(=O)N1CC[C@H](C(=O)Nc2ccccc2C(=O)N[C@H]2Cc3cc(O)cc(c3)-c3ccc4c(c3)c(c(-c3cnccc3COC)n4CC)CC(C)(C)COC(=O)[C@@H]3CCCN(N3)C2=O)C1` [Example A229], for which the half-inhibitory concentration (IC50) (commonly the concentration that inhibits the measured activity by half) in the assay on NCI-H358 (K-Ras G12C) is above 1 µM; at K-Ras G12C it was 0.1 to 1 µM; at K-Ras G13C it was above 10 µM; on KRAS G12S, above 10 µM; on KRAS G12D it was above 10 µM; at KRAS G12V, above 10 µM. For the same molecule, the half-inhibitory concentration (IC50) at KRAS WT is above 10 µM; on KRAS G13D, above 10 µM; at NRAS G12C it was 1 to 10 µM.

In the case of `C=CC(=O)N1CC[C@H](C(=O)N(C)[C@H](C(=O)N(C)[C@H]2Cc3cc(O)cc(c3)-c3ccc4c(c3)c(c(-c3cccnc3COC)n4CC)CC(C)(C)COC(=O)[C@@H]3CCCN(N3)C2=O)C(C)C)C1` [Example A230], the IC50 with NCI-H358 (K-Ras G12C) is above 1 µM; at K-Ras G12C, above 10 µM; on K-Ras G13C it was above 10 µM; on KRAS G12S, above 10 µM; on KRAS G12D, above 10 µM; on KRAS G12V it was above 10 µM. Further, the IC50 on KRAS WT, at KRAS G13D and at NRAS G12C was above 10 µM throughout.

For the molecule `C=CC(=O)N1CC[C@H](C(=O)N(C)[C@H](C(=O)N[C@H]2Cc3cc(OC4O[C@H](CO)[C@@H](O)[C@H](O)[C@H]4O)cc(c3)-c3ccc4c(c3)c(c(-c3cccnc3COC)n4CC)CC(C)(C)COC(=O)[C@@H]3CCCN(N3)C2=O)C(C)C)C1` (stereo partly drawn) [Example A234], the IC50 in the assay with NCI-H358 (K-Ras G12C) is above 1 µM; on K-Ras G12C, above 10 µM; on K-Ras G13C, above 10 µM; at KRAS G12S, above 10 µM; on KRAS G12D it was above 10 µM; on KRAS G12V, above 10 µM. Besides, the 50% inhibitory concentration (IC50) on KRAS WT, on KRAS G13D and at NRAS G12C was above 10 µM in each case.

`C=CC(=O)N1CC(O[C@H](C(=O)N[C@H]2Cc3cc(O)cc(c3)-c3ccc4c(c3)c(c(-c3cccnc3COC)n4CC)CC(C)(C)COC(=O)[C@@H]3CCCN(N3)C2=O)C(C)C)C1` [Example A235]: the IC50 with NCI-H358 (K-Ras G12C) was above 1 µM; on K-Ras G12C it was 1 to 10 µM; on K-Ras G13C, 1 to 10 µM; on KRAS G12S, above 10 µM; at KRAS G12D it was above 10 µM; on KRAS G12V, above 10 µM. The IC50 at KRAS WT was above 10 µM; on KRAS G13D, above 10 µM; at NRAS G12C it was 1 to 10 µM.

Turning to `C=CC(=O)N1CC[C@H](C(=O)N(C)[C@H](C(=O)N[C@H]2CC3=NN=C(S3)c3ccc4c(c3)c(c(-c3cccnc3COC)n4CC)CC(C)(C)COC(=O)[C@@H]3CCCN(N3)C2=O)C(C)C)C1` [Example A236], the half-maximal inhibitory concentration (IC50) in the assay on NCI-H358 (K-Ras G12C) is above 1 µM; on K-Ras G12C, above 10 µM; at K-Ras G13C it was above 10 µM; at KRAS G12S, above 10 µM; at KRAS G12D, above 10 µM; on KRAS G12V, above 10 µM. The half-maximal inhibitory concentration (IC50) at KRAS WT, at KRAS G13D and on NRAS G12C was above 10 µM throughout.

Regarding `C=CC(=O)N1CC[C@H](C(=O)N(C)[C@H](C(=O)N[C@H]2CN(C)C(=O)Cc3ccc4c(c3)c(c(-c3cccnc3COC)n4CC)CC(C)(C)COC(=O)[C@@H]3CCCN(N3)C2=O)C(C)C)C1` [Example A239], the IC50 was above 1 µM in the assay on NCI-H358 (K-Ras G12C); above 10 µM at K-Ras G12C; above 10 µM at K-Ras G13C; above 10 µM at KRAS G12S; above 10 µM at KRAS G12D; above 10 µM on KRAS G12V. Also, the IC50 on KRAS WT, on KRAS G13D and at NRAS G12C was above 10 µM throughout.

Take `C=CC(=O)N1CC[C@H](C(=O)N(C)[C@H](C(=O)N[C@@H]2C(=O)N3CCC[C@H](N3)C(=O)OCC(C)(C)Cc3c(-c4cncnc4)n(CC)c4ccc(cc34)-c3cccc(c3)[C@@H]2OC)C(C)C)C1` [Example A271]: the IC50 is above 1 µM in the assay on NCI-H358 (K-Ras G12C); above 10 µM at K-Ras G12C; above 10 µM at K-Ras G13C; above 10 µM on KRAS G12S; above 10 µM at KRAS G12D; above 10 µM at KRAS G12V. Moreover, the IC50 at KRAS WT, at KRAS G13D and on NRAS G12C was above 10 µM in each case.
